Experimental data taken from patent US20130012466A1 (priority 2006, published 2013).
“Also recorded” adds a separate entry of the source. Like-named read-outs stand apart in the source and are kept apart here.

How the values were obtained:
SF-268 = assay: Cytotoxicity assay (cell titer-glo and calcein AM), SF-268; settings: SF-268, % error in parentheses
[1] = system: mouse mammary normal epithelial control cell line; assay: Cytotoxicity assay, normal control cell line
tubulin = assay: In vitro tubulin polymerization assay (fluorescence-based); assay type: biochemical; set-up: key to tubulin polymeriz.: ‘D’ designates destabilizer; ‘S’ designates stabilizer; settings: for effect on tubulin polymerization / microtubules: tested in duplicate on at least two days
Procedure: In vitro tubulin polymerization assays were performed using a fluorescence-based assay (Cytoskeleton, Inc., Denver, Colo.). […] Aliquots (5 μL) of each compound or control were added to a 96-well black half area plate (Corning Costar, Inc.) pre-warmed to 37° C. Cold tubulin reaction mix (50 μL 1× Buffer—80 mM piperazine-N,N′-bis[2-ethanesulfonic acid]sequisodium salt; 2.0 mM magnesium chloride; 0.5 mM ethylene glycol-bis[β-amino-ethyl ether) N,N,N′,N′-tetra-acetic acid, pH 6.9, 10 μM fluorescent reporter; 20% tubulin glycerol buffer—80 mM piperazine-N,N′-bis[2-ethanesulfonic acid] sequisodium salt; 2.0 mM magnesium chloride; 0.5 mM ethylene glycol-bis(β-amino-ethyl ether) N,N,N′,N′-tetra-acetic acid, 60% v/v glycerol, pH 6.9, 1 mM GTP; and 2 mg mL^−1 tubulin stock) was added to each of the compounds. […] Polymerization curves were generated in Excel after background correction and the effects of test compounds were compared to controls.
Library members that accelerated the rate of tubulin polymerization were deemed microtubule stabilizers, whereas compounds that decelerated the rate of tubulin polymerization were deemed microtubule de-stabilizers.

NCI-H460 = assay: Cytotoxicity assay (cell titer-glo and calcein AM), NCI-H460; settings: NCI-H460, % error in parentheses
ADR-RES = assay: Cytotoxicity assay (cell titer-glo and calcein AM), ADR-RES; settings: NCI/ADR RES, % error in parentheses
SK-OV-3 = assay: Cytotoxicity assay (cell titer-glo and calcein AM), SK-OV-3
A549 cells [2] = assay: Drug combination study with colchicine (Chou-Talalay combination index); settings: for plus colchicine, mean CI / plus colchicine, median CI: combination index, colchicine held at IC10, A549 cells; for interaction with colchicine: drug combination, A549 cells, Chou-Talalay
Procedure: (§1) Ten thousand A549 cells per well were plated in triplicate in 96 well black tissue culture treated plates. Cells were incubated for one hour at 37° C. to allow cells to attach.
(§2) All synergy experiment results were replicated at least three times and the overall effects analyzed by averaging all combination indexes generated if the fraction affected was greater than 0.2.

[3] = system: nine human cancer cell lines and one normal mouse control cell line; assay: Cytotoxicity screen across the whole cell line panel; assay type: cell-based; settings: all cell lines other than SK-OV-3; range printed with mixed units nM-μM; read-out: potencies (IC50) in all other cell lines
Hep3B = assay: Cytotoxicity assay (cell titer-glo and calcein AM), Hep3B; settings: Hep 3B, % error in parentheses
Du145 = assay: Cytotoxicity assay (cell titer-glo and calcein AM), Du145; settings: Du145, % error in parentheses
MCF7 = assay: Cytotoxicity assay (cell titer-glo and calcein AM), MCF7
A549 cells [4] = assay: Drug combination study with paclitaxel (Chou-Talalay combination index); settings: for plus paclitaxel, mean CI / plus paclitaxel, median CI: combination index, paclitaxel held at IC10, A549 cells; for interaction with paclitaxel/taxol: drug combination, A549 cells, Chou-Talalay;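 for all read-outs here: combination indexes averaged only over points where fraction affected exceeded 0.2, with each synergy experiment repeated at least three times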
Procedure: as §1, §2

A549 = assay: Cytotoxicity assay (cell titer-glo and calcein AM), A549; settings: A549, % error in parentheses
HCT-116 = assay: Cytotoxicity assay (cell titer-glo and calcein AM), HCT-116; settings: HCT-116, % error in parentheses
[5] = read-out: Cytotoxicity IC50, SF-268, CTG, CTG (cell titer-glo) readout
[6] = read-out: Cytotoxicity IC50, SF-268, calcein, calcein AM readout
[7] = read-out: Cytotoxicity IC50, NmuMG, CTG, CTG (cell titer-glo) readout, % error in parentheses
[8] = read-out: Cytotoxicity IC50, NmuMG, calcein, calcein AM readout, % error in parentheses
[9] = read-out: Cytotoxicity IC50, NCI-H460, CTG, CTG (cell titer-glo) readout
[10] = read-out: Cytotoxicity IC50, NCI-H460, calcein, calcein AM readout
[11] = read-out: Cytotoxicity IC50, NCI/ADR RES, CTG, CTG (cell titer-glo) readout
[12] = read-out: Cytotoxicity IC50, NCI/ADR RES, calcein, calcein AM readout
[13] = read-out: Cytotoxicity IC50, SK-OV-3, CTG, SK-OV-3, CTG (cell titer-glo) readout, % error in parentheses
[14] = read-out: Cytotoxicity IC50, SK-OV-3, calcein, SK-OV-3, calcein AM readout, % error in parentheses
[15] = read-out: Cytotoxicity IC50, Hep 3B, CTG, CTG (cell titer-glo) readout
[16] = read-out: Cytotoxicity IC50, Hep 3B, calcein, calcein AM readout
[17] = read-out: Cytotoxicity IC50, Du145, CTG, CTG (cell titer-glo) readout
[18] = read-out: Cytotoxicity IC50, Du145, calcein, calcein AM readout
[19] = read-out: Cytotoxicity IC50, MCF7, CTG, CTG (cell titer-glo) readout, % error in parentheses
[20] = read-out: Cytotoxicity IC50, MCF7, calcein, calcein AM readout, % error in parentheses
[21] = read-out: Cytotoxicity IC50, A549, CTG, CTG (cell titer-glo) readout
[22] = read-out: Cytotoxicity IC50, A549, calcein, calcein AM readout

## 2-deoxy-D-galactoside [Col6]
SF-268; [5]
  IC50: 0.632 µM
SF-268; [6]
  IC50: 0.691 µM
[1]; [7]
  IC50: 3.26 µM
[1]; [8]
  IC50: 4.17 µM
tubulin
  tubulin polymeriz.: D
  effect on tubulin polymerization / microtubules: destabilizing; also recorded: destabilized microtubules
NCI-H460; [9]
  IC50: 0.745 µM
NCI-H460; [10]
  IC50: 0.948 µM
ADR-RES; [11]
  IC50: 0.877 µM
ADR-RES; [12]
  IC50: 0.887 µM
SK-OV-3; [13]
  IC50: 0.388 µM
SK-OV-3; [14]
  IC50: 0.381 µM
SK-OV-3; read-out: IC50 in SK-OV-3 cells
  IC50: 0.381 µM
A549 cells [2]
  plus colchicine, mean CI: 1.30
  plus colchicine, median CI: 1.19
  interaction with colchicine: antagonism
[3]
  IC50: 691 to 1120 nM
Hep3B; [15]
  IC50: 0.817 µM
Hep3B; [16]
  IC50: 1.12 µM
Du145; [17]
  IC50: 0.892 µM
Du145; [18]
  IC50: 0.958 µM
MCF7; [19]
  IC50: 0.665 µM
MCF7; [20]
  IC50: 2.21 µM
A549 cells [4]; combination index class, combination with paclitaxel, Chou-Talalay method
  synergy (paclitaxel): + (slight synergism, Cl 0.85-0.9)
A549 cells [4]
  plus paclitaxel, mean CI: 0.88
  plus paclitaxel, median CI: 0.52
  interaction with paclitaxel/taxol: synergy
A549; [21]
  IC50: 0.782 µM
A549; [22]
  IC50: 0.942 µM

## 6-thio-D-mannose dimer [Col58]
SF-268; [5]
  IC50: 8.01 µM
SF-268; [6]
  IC50: 9.09 µM
[1]; [7]
  IC50: 6.39 µM
[1]; [8]
  IC50: > 10 µM
HCT-116; read-out: Cytotoxicity IC50, HCT-116, CTG, CTG (cell titer-glo) readout
  IC50: 1.9 µM
HCT-116; read-out: Cytotoxicity IC50, HCT-116, calcein, calcein AM readout
  IC50: 2.51 µM
NCI-H460; [9]
  IC50: > 10 µM
NCI-H460; [10]
  IC50: > 10 µM
ADR-RES; [11]
  IC50: 3.6 µM
ADR-RES; [12]
  IC50: 1.57 µM
SK-OV-3; [13]
  IC50: 6.07 µM
SK-OV-3; [14]
  IC50: 7.56 µM
Hep3B; [15]
  IC50: 8.62 µM
Hep3B; [16]
  IC50: 5.02 µM
Du145; [17]
  IC50: 2.09 µM
Du145; [18]
  IC50: 2.12 µM
MCF7; [19]
  IC50: 2.5 µM
MCF7; [20]
  IC50: 3.86 µM
A549; [21]
  IC50: 3.92 µM
A549; [22]
  IC50: 4.62 µM

## COc1cc2c(c(OC)c1OC)-c1ccc(OC)c(=O)cc1[C@@H](NC(=O)CN(OC)[C@H]1C[C@@H](O)[C@H](O)[C@@H](CO)O1)CC2 [Col16, 2-deoxy-D-glucoside]
SF-268; [5]
  IC50: 1.07 µM
SF-268; [6]
  IC50: 1.54 µM
[1]; [7]
  IC50: 1.61 µM
[1]; [8]
  IC50: 4.42 µM
tubulin
  effect on tubulin polymerization / microtubules: destabilized microtubules
NCI-H460; [9]
  IC50: 0.946 µM
NCI-H460; [10]
  IC50: 0.808 µM
ADR-RES; [11]
  IC50: 1.68 µM
ADR-RES; [12]
  IC50: 0.899 µM
SK-OV-3; [13]
  IC50: 0.432 µM
SK-OV-3; [14]
  IC50: 0.625 µM
A549 cells [2]
  plus colchicine, mean CI: 5.97
  plus colchicine, median CI: 5.33
  interaction with colchicine: antagonism
Hep3B; [15]
  IC50: 1.92 µM
Hep3B; [16]
  IC50: 1.44 µM
Du145; [17]
  IC50: 0.705 µM
Du145; [18]
  IC50: 0.91 µM
MCF7; [19]
  IC50: 2.65 µM
MCF7; [20]
  IC50: 1.92 µM
A549 cells [4]
  plus paclitaxel, mean CI: 0.40
  plus paclitaxel, median CI: 0.11
  interaction with paclitaxel/taxol: synergy
A549; [21]
  IC50: 3.9 µM
A549; [22]
  IC50: 1.68 µM
